Entries after “also recorded” stand apart in the source; their conditions may differ.
Key:
neural stem cells = assay: Neural stem cell differentiation assay on poly-L-ornithine/laminin; assay type: cell-based, mice
Protocol: The effects of γ-secretase inhibitor L-685,458 on neural stem cell differentiation was analyzed. Neural stem cells were allowed to differentiate when cultured on glass coverslips coated with 10 μg/mL poly-L-ornithine (Sigma, St. Louis, Mo.) and 5-10 μg/mL laminin (Sigma) in media with 5% fetal bovine serum without EGF and FGF.
γ-secretase inhibitor L-685,458-induced differentiation was further analyzed by immunostaining using antibodies to the astrocyte marker GFAP, and the early neural marker nestin. […] Scale bar=[…] (FIG. 8E, representative GFAP staining is marked with single arrows).
The length of the processes developed from the middle of the soma to the axon tip of GFAP positive cells after two days of L-685,458 treatment was analyzed and the results are shown in FIG. 8G. Twenty four hours after culturing whole neurospheres on laminin, vehicle-treated cultures remained mostly as neurospheres with slight cell differentiation (FIG. 8F, top panels).

[1] = tested on: neurospheres from the SVZ of adult mice; assay: BrdU proliferation assay of neurospheres (γ-secretase inhibitor or lentiviral siRNA); assay type: cell-based; conditions: 1 μM for 24 hours; FIG. 8A
Protocol: To further establish that reduced expression of PS1 decreased neural stem cell proliferation and induced neural stem cell differentiation, neurospheres established as described above from the SVZ of adult mice were subject to a proliferation assay following the treatment with the γ-secretase inhibitor L-685,458 (1 μM for 24 hours) (Sigma, St. Louis, Mo.). As a comparison, neurospheres were transduced with lentiviral vectors expressing either IR siRNA or PS1 siRNA. The proliferation assay was performed as follows: lentivirally-transduced neurospheres or γ-secretase inhibitor-treated neurospheres were singly dissociated and cultured (10,000 cells/well) with BrdU for 48 hours. BrdU-labeled cells were fixed in 4% PFA and immunolabeled with anti-BrdU antibodies followed by HRP-conjugated secondary antibodies. Thereafter, the cells were incubated with the TMD peroxidase substrate and read on a plate reader at 450-595 nm. […] Results were presented as a percentage of DMSO-treated NSCs.

PS1 = assay: Immunoblot of PS1 expression in N2a cells transduced with lentiviral vector; assay type: cell-based, murine; conditions: N2a cells five days following transduction, versus GFP only or irrelevant siRNA; FIG. 6A
Excerpt: PS1 siRNA lentiviruses were verified by immunoblot analysis for the reduction of PS1 protein expression in N2a cells transduced with the lentiviral vector. N2a cells were transduced with the purified shRNA vector preparation followed by immunoblot analysis using anti-PS1 polyclonal antibody (Lazarov et al., 2005, J. Neurosci. 25: 2386-95.). Presenilins undergo cleavage in an alpha helical region of one of the cytoplasmic loops to produce a larger N-terminal (“PS1 NTF”) and a smaller C-terminal fragment which together form part of the functional protein. […] PS1 siRNA 4-11 (lane 1) refers to a different PS1 siRNA construct having the siRNA sequence of 5′ GGACCAACTTGCATTCCAT 3′ (SEQ ID NO:18) under the U6 promoter. The samples in lanes 6 and 7 were brain extracts of transgenic mice harboring PS1HWT (wild type human PS1; lane 6) and PS1ΔE9 (human PS1 with exon 9 deleted; lane 7), both of which served as positive controls for PS1 detection.

sAPP = assay: Immunoblot of sAPP in conditioned media of treated NSC (22C11 antibody); assay type: cell-based, mice; conditions: NSC cultures, versus GM6001NK; FIG. 3B
Excerpt: APPWT CM represents proliferation results of GM6001-treated cells supplemented with APPWT-conditioned media. (B) Immunoblot analysis of sAPP levels in conditioned media from GM6001- and GM6001NK-treated NSC using the 22C11 antibody.
Results were obtained as percentages of BrdU positive cells in GM6001-treated culture over BrdU positive cells in the control culture treated with DMSO (FIG. 3A). […] To examine the possibility that reduced proliferation was a result of reduced levels of sAPP, GM6001-treated cells were supplemented with conditioned media of neurospheres derived from APPWT mice, in which the α-secretase cleavage product sαAPP was present. […] The secretion levels of sAPP were also examined by immunoblot analysis in the conditioned media of GM6001- or GM6001NK-treated cells.

[2] = tested on: neurospheres derived from adult mice neural stem cells; assay: Neurosphere diameter assay of singly dissociated adult NSCs plated for 8 days; assay type: cell-based; conditions: FIG. 4
Excerpt: Both α- and β-secretases can cleave membrane-bound APP and release the secreted form of APP (sAPP). Proteolytic cleavage of APP by α-secretase releases one form of the secreted APP referred to as sαAPP, whereas cleavage of APP by β-secretase releases a C-terminally truncated sAPP referred to as sβAPP. The significance and difference in the functionality of these two forms of sAPP remains elusive. To distinguish the role of the α or β form of sAPP in promoting neural stem cell proliferation, neurospheres derived from adult mice neural stem cells were dissociated to single cells, plated for 8 days, treated with GM6001 or GM6001NK alone, treated with GM6001 and supplemented with conditioned media from neuroblastoma N2a cells expressing wild type APP, or treated with GM6001 and supplemented with conditioned media from 192 Swe N2a cells. Media conditioned by the neuroblastoma N2a was enriched in sαAPP as the wild type APP expressed in these cells was preferentially processed by α-secretase to produce sαAPP. The 192 Swe N2a conditioned medium was enriched in sβAPP as the 192 Swe N2a cells expressing the Swedish mutant form of APP that was preferentially cleaved by β-secretase. See Bogdanovic et al., 2001, Dement Geriatr. Congn. Discord. 12:364-70.

[3] = tested on: neural stem cells isolated from the SVZ of adult wild type mice; assay: BrdU proliferation assay of neurosphere cultures treated with ADAM inhibitor; assay type: cell-based; conditions: treated 48 hours, compared to inactive analog GM6001NK; FIG. 3A
Protocol: The role for α-secretase in regulating proliferation of NSCs was examined. Neurosphere cultures were established from neural stem cells isolated from the SVZ of adult wild type mice. […] Thereafter, cells were pulse-labeled with 5 μM BrdU for 24 hours before fixation in 4% paraformaldehyde (PFA). The fixed cells were incubated with anti-BrdU antibodies and then HRP-conjugated secondary antibodies, followed by incubation with the TMD peroxidase substrate (Pierce Protein Research Products, Thermo Scientific, Rockford, Ill.). Signals were detected using a plate reader at 450-595 nm.

CC(C)C[C@H](NC(=O)[C@H](Cc1ccccc1)C[C@@H](O)[C@H](Cc1ccccc1)NC(=O)OC(C)(C)C)C(=O)N[C@@H](Cc1ccccc1)C(N)=O [L-685,458]
GFAP immunostaining (neural stem cells; FIG. 8E): Positive staining of GFAP | neural progenitor cell differentiation (neural stem cells; differentiation medium, compared to DMSO, FIGS. 8B-8F): induced neural progenitor cell differentiation | immunostaining for β-tubulin and GFAP (neural stem cells; neurospheres on laminin, FIG. 8F): increased immunostaining for both β-tubulin and GFAP | differentiation of whole neurospheres cultured on laminin (neural stem cells; twenty four hours on laminin, FIG. 8F): extensive differentiation | number of differentiated cells (neural stem cells; two-day treatment, compared to control, FIG. 8C): increased number of differentiated cells | number of GFAP+Nestin+DCX+ cells (neural stem cells; two-day treatment, compared to control, FIG. 8H): dramatically decreased; also recorded: decrease | number of neurospheres formed from singly-dissociated neurosphere cells (neural stem cells; two-day treatment, compared with control, FIG. 8D): reduced number of neurospheres | BrdU+ immunoreactivity (percentage of DMSO-treated NSCs) [1]: Reduced BrdU+ immunoreactivity; also recorded: reduced neural stem cell proliferation

5′ GGACCAACTTGCATTCCAT 3′ (expressed or natural sequence) [PS1 siRNA 4-11]
PS1 expression (PS1): reduced

CNC(=O)[C@H](Cc1c[nH]c2ccccc12)NC(=O)[C@@H](CC(=O)NO)CC(C)C [GM6001]
levels of secreted sAPP in conditioned media (sAPP): reduced | average diameter of neurospheres [2]: reduced the average diameter of neurospheres | BrdU immunoreactivity (BrdU positive cells relative to DMSO control) [3]: Reduced BrdU immunoreactivity

Source: patent publication US20110129450A1, “METHOD OF PROMOTING NEUROGENESIS BY MODULATING SECRETASE ACTIVITIES” (priority 2008, published 2011)
